According to patent US4156724A, “N-acylamino-alpha-arylacetamido cephalosporins and antibacterial compositions and methods containing them” (Sumitomo Chemical Company, Limited, priority 1974, dated 1979):
Converted amounts (≈) assume the structure as drawn. Like-named read-outs stand apart in the source and are kept apart here.

Key:
Assay type in all cases: cell-based
[1] = system: Pseudomonas aeruginosa 104; test: Minimum Inhibitory Concentration, Pseudomonas aeruginosa 104; settings: Pseudomonas aeruginosa 104; for MIC: read-out: Minimum Inhibitory Concentration
Experimental: (§1) anti-microbial activity tests were carried out on the compounds obtained in the Examples.

[2] = system: Enterobacter aerogeneus No. 75; test: Minimum Inhibitory Concentration, Enterobacter aerogeneus No. 75; settings: Enterobacter aerogeneus No. 75; for MIC: read-out: Minimum Inhibitory Concentration
Experimental: as §1

[3] = system: Staphylococcus aureus FS 289; test: Minimum Inhibitory Concentration, Staphylococcus aureus FS 289
Experimental: as §1
*Staphylococcus aureus FS 289: strain resistant to penicillin

Escherichia coli NIHJ = test: Minimum Inhibitory Concentration, Escherichia coli NIHJ; settings: for MIC: read-out: Minimum Inhibitory Concentration
Experimental: as §1

Proteus vulgaris HX 19 = test: Minimum Inhibitory Concentration, Proteus vulgaris HX 19; settings: Proteus vulgaris HX 19; for MIC: HX19, read-out: Minimum Inhibitory Concentration
Experimental: as §1

Serratia No. 72 = test: Minimum Inhibitory Concentration, Serratia No. 72
Experimental: as §1

[4] = system: Staphylococcus aureus 209 P; test: Minimum Inhibitory Concentration, Staphylococcus aureus 209 P; settings: Staphylococcus aureus 209 P; for MIC: read-out: Minimum Inhibitory Concentration
Experimental: as §1

[5] = system: Klebsiella pneumoniae 602; test: Minimum Inhibitory Concentration, Klebsiella pneumoniae 602; settings: for MIC: Klebsiella pneumoniae, 602, Klebsiella pneumoniae 602, read-out: Minimum Inhibitory Concentration; for Minimum Inhibitory Concentration: Klebsiella pneumoniae 602
Experimental: as §1

[6] = FS289, Staphylococcus aureus FS 289, strain resistant to penicillin, read-out: Minimum Inhibitory Concentration
[7] = Staphylococcus aureus FS 289, strain resistant to penicillin

`Cn1nnnc1SCC1=C(C(=O)O)N2C(=O)[C@@H](NC(=O)[C@H](NC(=O)c3cnc4cccnc4c3O)c3cccc(NC(N)=O)c3)[C@H]2SC1` [Example 38] was tested, and the MIC [1] was 3.13 µg/mL (≈ 4.53 µM), the MIC [2] was 3.13 µg/mL (≈ 4.53 µM) and the MIC [3, 6] was 6.25 µg/mL (≈ 9.04 µM). It also gave an MIC (Escherichia coli NIHJ; Escherichia coli NIHJ) of 1.56 µg/mL (≈ 2.26 µM), an MIC (Proteus vulgaris HX 19) of 0.1 µg/mL (≈ 0.145 µM) and an MIC (Serratia No. 72) of 12.5 µg/mL (≈ 18.1 µM). For the same compound, the MIC [4] was 0.78 µg/mL (≈ 1.13 µM) and the MIC [5] was 1.56 µg/mL (≈ 2.26 µM).

`Cn1nnnc1SCC1=C(C(=O)O)N2C(=O)C(NC(=O)C(NC(=O)c3cnccc3O)c3ccc(O)c(Cl)c3)C2SC1` (centres unmarked) [Example 179] showed an MIC [1] of 12.5 µg/mL (≈ 19.7 µM), an MIC [2] of 12.5 µg/mL (≈ 19.7 µM) and an MIC [3, 6] of 6.25 µg/mL (≈ 9.87 µM). The MIC (Escherichia coli NIHJ; Escherichia coli NIHJ) was 6.25 µg/mL (≈ 9.87 µM), the MIC (Proteus vulgaris HX 19) was 0.39 µg/mL (≈ 0.616 µM) and the MIC (Serratia No. 72) was 50 µg/mL (≈ 79 µM). For the same compound, the MIC [4] was 0.39 µg/mL (≈ 0.616 µM) and the MIC [5] was 6.25 µg/mL (≈ 9.87 µM).

Compound `Cn1nnnc1SCC1=C(C(=O)O)N2C(=O)C(NC(=O)C(NC(=O)c3cnc4cccnc4c3O)c3ccc(N)cc3)C2SC1` (centres unmarked) [Example 71] has an MIC [1] of 3.13 µg/mL (≈ 4.83 µM), an MIC [2] of 3.13 µg/mL (≈ 4.83 µM) and an MIC [3, 6] of 6.25 µg/mL (≈ 9.63 µM). It also gave an MIC (Escherichia coli NIHJ; Escherichia coli NIHJ) of 1.56 µg/mL (≈ 2.4 µM), an MIC (Proteus vulgaris HX 19) of 0.1 µg/mL (≈ 0.154 µM) and an MIC (Serratia No. 72) of 12.5 µg/mL (≈ 19.3 µM). For the same compound, the MIC [4] was 1.56 µg/mL (≈ 2.4 µM) and the MIC [5] was 3.13 µg/mL (≈ 4.83 µM).

With `COc1cnc2c(O)c(C(=O)N[C@@H](C(=O)N[C@@H]3C(=O)N4C(C(=O)O)=C(COC(C)=O)CS[C@H]34)c3cccc(NC(N)=O)c3)cnc2n1` [Example 31] the MIC [1] was 6.25 µg/mL (≈ 9.38 µM), the MIC [2] was 25 µg/mL (≈ 37.5 µM) and the MIC [3, 6] was 6.25 µg/mL (≈ 9.38 µM). For the same compound, the MIC (Escherichia coli NIHJ; Escherichia coli NIHJ) was 3.13 µg/mL (≈ 4.7 µM), the MIC (Proteus vulgaris HX 19) was 0.39 µg/mL (≈ 0.585 µM) and the MIC (Serratia No. 72) was 50 µg/mL (≈ 75 µM). The MIC [4] was 0.78 µg/mL (≈ 1.17 µM) and the MIC [5] was 3.13 µg/mL (≈ 4.7 µM).

With `CC(=O)OCC1=C(C(=O)[O-])N2C(=O)C(NC(=O)C(NC(=O)c3cnc4cccnc4c3O)c3ccc(O)c(O)c3)C2SC1.[Na+]` (centres unmarked) [Example 142] the “Minimum Inhibitory Concentration” value [1] was 6.25 µg/mL, the “Minimum Inhibitory Concentration” value [2] was 6.25 µg/mL and the “Minimum Inhibitory Concentration” value [3, 7] was 6.25 µg/mL. For the same compound, the “Minimum Inhibitory Concentration” value (Escherichia coli NIHJ; Escherichia coli NIHJ) was 3.13 µg/mL, the “Minimum Inhibitory Concentration” value (Proteus vulgaris HX 19) was 0.78 µg/mL and the “Minimum Inhibitory Concentration” value (Serratia No. 72) was 50 µg/mL. The “Minimum Inhibitory Concentration” value [4] was 1.56 µg/mL and the “Minimum Inhibitory Concentration” value [5] was 3.13 µg/mL.

Work on `COc1cnc2c(O)c(C(=O)NC(C(=O)NC3C(=O)N4C(C(=O)O)=C(CSc5nnnn5C)CSC34)c3ccc(O)cc3)cnc2n1` (centres unmarked) [Example 172] yielded an MIC [1] of 6.25 µg/mL (≈ 9.18 µM), an MIC [2] of 6.25 µg/mL (≈ 9.18 µM) and an MIC [3, 6] of 12.5 µg/mL (≈ 18.4 µM). It also gave an MIC (Escherichia coli NIHJ; Escherichia coli NIHJ) of 3.13 µg/mL (≈ 4.6 µM), an MIC (Proteus vulgaris HX 19) of 0.78 µg/mL (≈ 1.15 µM) and an MIC (Serratia No. 72) of 25 µg/mL (≈ 36.7 µM). It also gave an MIC [4] of 0.78 µg/mL (≈ 1.15 µM) and an MIC [5] of 3.13 µg/mL (≈ 4.6 µM).

In the case of `CC(=O)OCC1=C(C(=O)O)N2C(=O)C(NC(=O)[C@H](NC(=O)c3cnccc3O)c3cccc(N)c3)C2SC1` (stereo partly drawn) [Example 51, 7-[D-α-(4-Hydroxypyridine-3-carbonamide)-α -m-aminophenylacetamido]cephalosporanic acid], the MIC [1] is reported as 6.25 µg/mL (≈ 11.5 µM), the MIC [2] is reported as 25 µg/mL (≈ 46.2 µM) and the MIC [3, 6] is reported as 3.13 µg/mL (≈ 5.78 µM). For the same compound, the MIC (Escherichia coli NIHJ; Escherichia coli NIHJ) was 12.5 µg/mL (≈ 23.1 µM), the MIC (Proteus vulgaris HX 19) was 0.2 µg/mL (≈ 0.369 µM) and the MIC (Serratia No. 72) was greater than 200 µg/mL. It also gave an MIC [4] of 0.39 µg/mL (≈ 0.72 µM) and an MIC [5] of 12.5 µg/mL (≈ 23.1 µM).

With `Cc1nnc(SCC2=C(C(=O)O)N3C(=O)[C@@H](NC(=O)Cn4cnnn4)[C@H]3SC2)s1` [CEZ, reference compound] the MIC [1] was greater than 200 µg/mL, the MIC [2] was 100 µg/mL (≈ 220 µM) and the MIC ([3]; Staphylococcus aureus, FS289, read-out: Minimum Inhibitory Concentration) was 1.56 µg/mL (≈ 3.43 µM). It also gave an MIC (Escherichia coli NIHJ; Escherichia coli) of 1.56 µg/mL (≈ 3.43 µM), an MIC (Proteus vulgaris HX 19) of 6.25 µg/mL (≈ 13.8 µM) and an MIC (Serratia No. 72) greater than 200 µg/mL. It also gave an MIC [4] of 0.2 µg/mL (≈ 0.44 µM) and an MIC [5] of 0.78 µg/mL (≈ 1.72 µM).

`Cc1nnc(SCC2=C(C(=O)O)N3C(=O)C(NC(=O)[C@H](NC(=O)c4cnccc4O)c4ccc(O)cc4)C3SC2)s1` (stereo partly drawn) [Example 125, 7-[D-α-(4-Hydroxypyridine-3-carbonamido)-α-p-hydroxyphenylacetamido]-3-(2-methyl-1,3,4-thiadiazol-5-yl)thiomethyl-3-cephem-4-carboxylic Acid] showed an MIC [1] of 12.5 µg/mL (≈ 20.3 µM), an MIC [2] of 12.5 µg/mL (≈ 20.3 µM) and an MIC [3, 6] of 6.25 µg/mL (≈ 10.2 µM). For the same compound, the MIC (Escherichia coli NIHJ; Escherichia coli NIHJ) was 6.25 µg/mL (≈ 10.2 µM), the MIC (Proteus vulgaris HX 19) was 0.1 µg/mL (≈ 0.163 µM) and the MIC (Serratia No. 72) was 50 µg/mL (≈ 81.3 µM). It also gave an MIC [4] of 0.39 µg/mL (≈ 0.634 µM) and an MIC [5] of 6.25 µg/mL (≈ 10.2 µM).

With `CC(=O)OCC1=C(C(=O)[O-])N2C(=O)C(NC(=O)C(NC(=O)c3cnc4cccnc4c3O)c3cccc(O)c3)C2SC1.[Na+]` (centres unmarked) [Example 138] the “Minimum Inhibitory Concentration” value [1] was 6.25 µg/mL, the “Minimum Inhibitory Concentration” value [2] was 6.25 µg/mL and the “Minimum Inhibitory Concentration” value [3, 7] was 6.25 µg/mL. The “Minimum Inhibitory Concentration” value (Escherichia coli NIHJ; Escherichia coli NIHJ) was 3.13 µg/mL, the “Minimum Inhibitory Concentration” value (Proteus vulgaris HX 19) was 0.78 µg/mL and the “Minimum Inhibitory Concentration” value (Serratia No. 72) was 50 µg/mL. For the same compound, the “Minimum Inhibitory Concentration” value [4] was 0.78 µg/mL and the “Minimum Inhibitory Concentration” value [5] was 1.56 µg/mL.
